Experimental data from the NIST ThermoML archive (doi:10.1021/je0341918).
Numbers after ± are expanded uncertainties.

Test: xn = mol fraction of the nth substance listed
Details: 101.3 kPa, Liquid

OCCCCO [1,4-butanediol] + O
Details	mass density [kg/m3]	viscosity [mPa·s]
293.15 K, x1 = 0.0218	1001.44 ± 0.26	1.792 ± 0.17
293.15 K, x1 = 0.0478	1005.97 ± 0.27	2.65 ± 0.24
293.15 K, x1 = 0.0789	1010.98 ± 0.29	3.889 ± 0.34
293.15 K, x1 = 0.1175	1015.71 ± 0.3	5.788 ± 0.48
293.15 K, x1 = 0.1665	1019.86 ± 0.32	8.755 ± 0.67
293.15 K, x1 = 0.2305	1022.86 ± 0.33	11.86 ± 0.86
293.15 K, x1 = 0.3179	1024.32 ± 0.33	19.07 ± 1.3
293.15 K, x1 = 0.4441	1024.18 ± 0.34	31.72 ± 2.1
293.15 K, x1 = 0.6426	1021.57 ± 0.34	56.69 ± 2
293.15 K, x1 = 0.7917	1019.04 ± 0.34	73.61 ± 7.9
293.15 K, x1 = 0.8663	1017.74 ± 0.34	80.53 ± 11
293.15 K, x1 = 1	1015.76 ± 0.35	90.33 ± 15
303.15 K, x1 = 0.0218	998.53 ± 0.26	1.418 ± 0.14
303.15 K, x1 = 0.0478	1002.4 ± 0.26	1.957 ± 0.18
303.15 K, x1 = 0.0789	1006.62 ± 0.27	2.756 ± 0.25
303.15 K, x1 = 0.1175	1010.6 ± 0.29	3.954 ± 0.35
303.15 K, x1 = 0.1665	1014.11 ± 0.3	5.775 ± 0.48
303.15 K, x1 = 0.2305	1016.62 ± 0.31	7.633 ± 0.6
303.15 K, x1 = 0.3179	1017.88 ± 0.31	12.09 ± 0.88
303.15 K, x1 = 0.4441	1017.65 ± 0.32	19.66 ± 1.4
303.15 K, x1 = 0.6426	1015.15 ± 0.32	34.96 ± 2.3
303.15 K, x1 = 0.7917	1012.77 ± 0.32	45.5 ± 3
303.15 K, x1 = 0.8663	1011.48 ± 0.32	49.82 ± 3.2
303.15 K, x1 = 1	1009.54 ± 0.33	55.98 ± 1.9
313.15 K, x1 = 0.0218	994.86 ± 0.27	1.176 ± 0.11
313.15 K, x1 = 0.0478	998.21 ± 0.26	1.522 ± 0.14
313.15 K, x1 = 0.0789	1001.79 ± 0.26	2.053 ± 0.19
313.15 K, x1 = 0.1175	1005.16 ± 0.27	2.835 ± 0.26
313.15 K, x1 = 0.1665	1008.13 ± 0.28	4.008 ± 0.35
313.15 K, x1 = 0.2305	1010.28 ± 0.29	5.198 ± 0.45
313.15 K, x1 = 0.3179	1011.36 ± 0.29	8.018 ± 0.62
313.15 K, x1 = 0.4441	1011.09 ± 0.3	12.78 ± 0.92
313.15 K, x1 = 0.6426	1008.76 ± 0.3	22.43 ± 1.5
313.15 K, x1 = 0.7917	1006.4 ± 0.3	29.65 ± 2
313.15 K, x1 = 0.8663	1005.15 ± 0.3	32.53 ± 2.2
313.15 K, x1 = 1	1003.31 ± 0.31	35.74 ± 2.4
323.15 K, x1 = 0.0218	990.45 ± 0.28	0.981 ± 0.097
323.15 K, x1 = 0.0478	993.4 ± 0.27	1.222 ± 0.12
323.15 K, x1 = 0.0789	996.45 ± 0.26	1.573 ± 0.15
323.15 K, x1 = 0.1175	999.34 ± 0.25	2.124 ± 0.2
323.15 K, x1 = 0.1665	1001.87 ± 0.26	2.909 ± 0.26
323.15 K, x1 = 0.2305	1003.72 ± 0.27	3.683 ± 0.33
323.15 K, x1 = 0.3179	1004.68 ± 0.27	5.573 ± 0.47
323.15 K, x1 = 0.4441	1004.42 ± 0.28	8.706 ± 0.67
323.15 K, x1 = 0.6426	1002.32 ± 0.28	14.6 ± 1
323.15 K, x1 = 0.7917	1000 ± 0.28	19.29 ± 1.3
323.15 K, x1 = 0.8663	998.84 ± 0.29	21.11 ± 1.4
323.15 K, x1 = 1	997.14 ± 0.31	23.63 ± 1.6
333.15 K, x1 = 0.0218	985.4 ± 0.3	0.871 ± 0.088
333.15 K, x1 = 0.0478	987.96 ± 0.29	1.042 ± 0.1
333.15 K, x1 = 0.0789	990.59 ± 0.28	1.281 ± 0.12
333.15 K, x1 = 0.1175	993.09 ± 0.27	1.652 ± 0.15
333.15 K, x1 = 0.1665	995.27 ± 0.27	2.191 ± 0.2
333.15 K, x1 = 0.2305	996.89 ± 0.27	2.705 ± 0.24
333.15 K, x1 = 0.3179	997.78 ± 0.27	4.017 ± 0.35
333.15 K, x1 = 0.4441	997.58 ± 0.27	6.143 ± 0.51
333.15 K, x1 = 0.6426	995.75 ± 0.29	10.12 ± 0.76
333.15 K, x1 = 0.7917	993.6 ± 0.3	13.04 ± 0.94
333.15 K, x1 = 0.8663	992.48 ± 0.31	14.29 ± 1
333.15 K, x1 = 1	990.93 ± 0.32	16.17 ± 1.1
343.15 K, x1 = 0.0218	979.61 ± 0.31	0.783 ± 0.08
343.15 K, x1 = 0.0478	981.88 ± 0.31	0.905 ± 0.091
343.15 K, x1 = 0.0789	984.16 ± 0.3	1.081 ± 0.11
343.15 K, x1 = 0.1175	986.37 ± 0.3	1.338 ± 0.13
343.15 K, x1 = 0.1665	988.29 ± 0.29	1.719 ± 0.16
343.15 K, x1 = 0.2305	989.74 ± 0.29	2.055 ± 0.19
343.15 K, x1 = 0.3179	990.6 ± 0.29	2.991 ± 0.27
343.15 K, x1 = 0.4441	990.49 ± 0.29	4.471 ± 0.39
343.15 K, x1 = 0.6426	988.97 ± 0.31	7.211 ± 0.57
343.15 K, x1 = 0.7917	987.21 ± 0.32	9.223 ± 0.7
343.15 K, x1 = 0.8663	986.17 ± 0.33	10.11 ± 0.75
343.15 K, x1 = 1	984.81 ± 0.34	11.45 ± 0.84
353.15 K, x1 = 0.0218	973.52 ± 0.33	0.723 ± 0.075
353.15 K, x1 = 0.0478	975.53 ± 0.33	0.809 ± 0.082
353.15 K, x1 = 0.0789	977.47 ± 0.32	0.94 ± 0.094
353.15 K, x1 = 0.1175	979.3 ± 0.32	1.108 ± 0.11
353.15 K, x1 = 0.1665	981.05 ± 0.31	1.381 ± 0.13
353.15 K, x1 = 0.2305	982.41 ± 0.31	1.804 ± 0.17
353.15 K, x1 = 0.3179	983.3 ± 0.31	2.283 ± 0.21
353.15 K, x1 = 0.4441	983.33 ± 0.32	3.358 ± 0.3
353.15 K, x1 = 0.6426	982.14 ± 0.33	5.276 ± 0.45
353.15 K, x1 = 0.7917	980.68 ± 0.34	6.743 ± 0.54
353.15 K, x1 = 0.8663	979.77 ± 0.35	7.321 ± 0.58
353.15 K, x1 = 1	978.59 ± 0.36	8.28 ± 0.64
